What was measured:
[1] = test system: American cockroach (Periplaneta americana); experiment: Insecticidal activity against American cockroach (topical application); format: in vivo; conditions: 72 h, read-out: Insecticidal activity against American cockroach (LD50)
Procedure: Insecticidal Activity Against American Cockroach (Periplaneta americana) and Toxicity to Rat Insecticidal Activity Against American Cockroach
Each of the present compound and reference compound A were diluted with acetone to prepare dilutions of prescribed concentrations. Each dilution was applied on the sterna of female adult American cockroaches with a micro-applicator in a volume of 1.0 μl per insect. Then, the insects were given water and diet. After 72 hours, the dead and alive were counted. From the mortality, LD50 (mg/kg) value was determined.

Toxicity to rat = conditions: in vivo, male rats, dilution in corn oil, 10 ml/kg, mortality after 7 days
Procedure: Each of the present compound and reference compound A was diluted with corn oil to predetermined concentrations. Each of the dilutions thus prepared was administered to male rats in an amount of 10 ml/kg. The rats were given water and diet. After 7 days, the dead and alive were counted for mortality. From the mortality, LD50 (mg/kg) value was determined.

[2] = test system: common mosquito (Culex pipiens pallens); experiment: Effect of spraying of an oil formulation on common mosquito (knock-down); format: in vivo; conditions: 0.7 ml sprayed in 0.34 m^3 glass chamber, female adults counted after two minutes
Text: Effect of spraying of an oil formulation on common mosquito (Culex pipiens pallens)
Ten female adult common mosquitoes were released in a glass chamber (70 cm cube, capacity: 0.34 m^3). 0.7 Milliliter of an oil formulation containing a predetermined concentration (shown in Table 2) of the present compound prepared according to Formulation Example 7 was sprayed into the chamber through a small side window of the chamber with a spray gun. The knocked-down common mosquitoes were counted in two minutes after the spraying.
(§1) The same test procedure was repeated for (S)-2-methyl-4-oxo-3-(2-propynyl)-cyclopent-2-enyl (1RS)-cis-3-(2,2-dichlorovinyl)-2,2-dimethylcyclopropanecarboxylate (hereinafter referred to as reference compound A).
In Table 2, the knocking-down activity is indicated according to the following criterion: […]

[3] = Calculation of safety factor (rat LD50 / American cockroach LD50); conditions: [Toxicity to rat (LD50 value)]/[Insecticidal activity against American cockroach (LD50 value)]
Procedure: Calculation of Safety Factor
The safety factor was calculated from the insecticidal activity against American cockroach and the toxicity to rat according to the following equation.
Safety factor=[Toxicity to rat (LD50 value)]/[Insecticidal activity against American cockroach (LD50 value)]

[4] = test system: common mosquito (Culex pipiens pallens); experiment: Effect of a mosquito coil on common mosquito (knock-down); format: in vivo; set-up: key: Excellent: All the insects were knocked down (the total in the two replications).; Good: 1 to 3 insects were not knocked down (ditto).; Mediocre: 4 to 6 insects were not knocked down (ditto).; Bad: 7 or more insects were not knocked down (ditto); conditions: 0.3 g coil burnt 30 seconds in 0.34 m^3 glass chamber, female adults counted after fifteen minutes
Text: Effect of a mosquito coil on common mosquito (Culex pipiens pallens)
A base material for mosquito coil (obtained by stirring a 4:3:3 mixture of Tabu powder, Pyrethrum marc and wood powder, adding water thereto, thoroughly kneading the resulting mixture, and molding and drying the kneaded mixture) was uniformly impregnated with a solution of the present compound in acetone so that the material contains a predetermined amount of the compound. The resultant base material was air-dried to obtain a mosquito coil.
Ten female adult common mosquitoes were released in a glass chamber (70 cm cube, capacity: 0.34 m^3). 0.3 Gram of a mosquito coil containing the present compound prepared according to the procedure described above was set on a holder in the center of bottom of the chamber, ignited at one end thereof, and taken out of the chamber after 30 seconds of combustion. The knocked-down common mosquitoes were counted in fifteen minutes after the setting of the coil.
as §1
In Table 1, the knocking-down activity is indicated according to the following criterion: […]

C#CCC1=C(C)[C@@H](OC(=O)[C@@H]2[C@H](C=C(Cl)Cl)C2(C)C)CC1=O (racemic) [A, (S)-2-methyl-4-oxo-3-(2-propynyl)-cyclopent-2-enyl (1RS)-cis-3-(2,2-dichlorovinyl)-2,2-dimethylcyclopropanecarboxylate]
LD50 [1]: 4.4 mg/kg
LD50 at 7 days (Toxicity to rat): < 100 mg/kg
Knocking-down activity ([2]; concentration 0.025 % W/W): Bad (7 or more insects were not knocked down (ditto).)
Knocking-down activity ([2]; concentration 0.05 % W/W): Bad (7 or more insects were not knocked down (ditto).)
Safety factor [3]: <23
Knocking-down activity ([4]; concentration 0.5 % W/W): Bad (7 or more insects were not knocked down (ditto).)
Knocking-down activity ([4]; concentration 1.0 % W/W): Bad (7 or more insects were not knocked down (ditto).)

C#CCC1=C(C)[C@@H](OC(=O)[C@@H]2[C@@H](C=C(Cl)Cl)C2(C)C)CC1=O [Present compound, (S)-2-methyl-4-oxo-3-(2-propynyl)-cyclopent-2-enyl (1R)-trans-3-(2,2-dichlorovinyl)-2,2-dimethylcyclopropanecarboxylate]
LD50 [1]: 0.72 mg/kg
LD50 at 7 days (Toxicity to rat): > 300 mg/kg
Knocking-down activity ([2]; concentration 0.025 % W/W): Good (3 or less insects were not knocked down (the total in the two replications).)
Safety factor [3]: >420
Knocking-down activity ([4]; concentration 0.5 % W/W): Excellent
